From patent US20260183262A1, “RNA-BINDING MOTIF PROTEIN 39 (RBM39) DEGRADERS FOR TREATMENT OF CANCERS” (RECURSION PHARMACEUTICALS, INC., priority 2022, published 2026)

Experiments:
CDK12+Cyclin K = target: T1, CDK12+Cyclin K (Homo sapiens, UniProt Q9NYV4); test: NanoBRET target engagement intracellular kinase assay in HEK293; type: cell-based; details: HEK293 cells transfected with CDK12-NanoLuc and CCNK; up to 10 μM
T1 construct: host or cells: HEK293 (transient transfection, FuGENE HD)
Experimental: • Cell culture: CDK12 NanoBRET assay kit was obtained from Reaction Biology with experiment performed by Pharmaron. HEK293 cells were cultured using 90% DMEM with 10% FBS. Cells were cultivated in T-75 flasks in a cell culture incubator set at 37° C., 5% CO^2, 95% relative humidity. Once cells reached 80-90% confluence, they were detached and split. Cultivated cells in T-75 flasks were rinsed with 5 mL PB and aspirated off. 1.5 mL trypsin was added and incubated at 37° C. for approximately 5 minutes or until the cells detached and started to float. Trypsin was inactivated by adding excess serum containing medium. • Transient Transfection of HEK293 Cells: Cell culture medium was removed from cell flask by aspiration and trypsinized, allowing cells to dissociate from flask. Trypsin was neutralized using cell culture medium and centrifuged at 200×g for 5 minutes to pellet cells. Medium was aspirated and resuspended in assay medium consisting of 99% Opti-MEM, reduced serum medium with no phenol red and 1% FBS. Density was adjusted to 2×10^5 cells/ml using assay medium. 10 μg/ml solution of DNA in Opti-MEM was prepared consisting of 9 μg/mL of CCNK, 1 ug/mL of Kinase-NanoLuc fusion vector DNA CDK12, and 1 mL of Opti-MEM. This solution was mixed thoroughly. 30 μl of FuGENE HD Transfection Reagent was added into each milliliter of DNA mixture to form lipid: DNA complex. Mixture was inverted 5-10 times and incubated at ambient temperature for 20 minutes to allow complexes to form. In a sterile, conical tub, 1 part of lipid DNA complex (1 mL) was mixed with 20 parts of HEK293 cells (20 mL) in suspension at 2×10^5 cells/mL. Tube was mixed gently by inversion 5 times. […] Lastly, 20 μL of this 3× complete substrate plus inhibitor solution was added to each well of the 384-well plate and incubated for 2-3 minutes at room temperature and read the plate on the Envision. • Calculation: BRET Ratio was calculated as follows: […]

CDK 1/2/3/5 = test: IHC protein expression on OVCAR3 tumor samples: CDK 1/2/3/5; type: in vivo, human; details: OVCAR3 tumor samples from Example 1 CDX study
Experimental: (§1) • Sample Collection: 16 tumor samples were collected across the vehicle, olaparib, E7820 single agent, and paclitaxel arms from the in vivo OVCAR3 CDX study described in Example 1
(§2) • 1) Collect fresh specimens and place in 10% NBF (neutral-buffered formalin; fixative volume/tissue, 10˜20 folds), fix at room temperature for 24 hours. • 2) Trim the fixed tissue at the thickness of 3-5 mm. • 3) Move the tissue into the Embedding box, and snap the box into deionized water for 30 minutes, change water twice every 30 minutes. • 4) After washing, the fixed tissues are transferred to the LEICA ASP300S Vacuum Tissue Processor for dehydration.
(§3) • All stained sections are scanned with NanoZoomer-HT 2.0 Image system for 40× magnification. High resolution picture for whole section is generated and further quantification analyzed by HALO. All the scanned images are analyzed by HALO™ platform. The whole slide image is analyzed and necrosis and stroma area are excluded, only viable tumor area is scored. The intensity of specific staining is scored at four levels, 0 (negative), 1+(weak staining), 2+(medium staining), 3+(strong staining). The percentages of tumor cells at different intensity levels are evaluated with H-score. H-Score=(% at 0)×0+(% at 1)×1+(% at 2)×2+(% at 3)×3 (H-Score range is 0 to 300).

OVCAR3 CDX model = test: Efficacy in HRD negative OVCAR3 CDX model; type: in vivo, mouse; details: BALBc/nude mice, E7820 50 mg/kg PO BID, olaparib 100 mg/kg PO QD, 21 days
Experimental: • Cell culture: OVCAR3 is a human ovarian cancer cell line that is BRCA-proficient and HRD negative. Crown biosciences in China acquired this cell line for in vivo testing. OVCAR3 human ovarian tumor cells were maintained in vitro with RPMI1640 supplemented with 20% fetal bovine serum and 10 μg/ml insulin at 37° C. in an atmosphere of 5% CO2 in air. The cells in exponential growth phase were harvested and quantitated by cell counter before tumor inoculation. • Tumor Inoculation: Each mouse was inoculated subcutaneously in the right upper flank region OVCAR-3 tumor cells (1×10^7 cells) with matrigel in 0.1 ml of PBS for tumor development. • Randomization: The randomization started from when the mean tumor size reached approximately 88 mm^3. […] Tumor volumes were measured three per week after randomization in two dimensions using a caliper, and the volume was expressed in mm^3 using the formula: V=(L×W×W)/2, where Vis tumor volume, L is tumor length (the longest tumor dimension) and W is tumor width (the longest tumor dimension perpendicular to L). % TGI was calculated using the formula % TGI=(TV vehicle−TV treatment)/(TV vehicle−TV initial)*100 for all mice (Wong, H, et al. Clin Cancer Res., 2012, 18(14): 3846-3855) • Treatment Arms: 10 mice per arm were treated with either Vehicle, olaparib, E7820, E7820 plus olaparib, or paclitaxel for 21 days. […]

pHH3 = test: IHC protein expression on OVCAR3 tumor samples: pHH3; type: in vivo, human; details: OVCAR3 tumor samples from Example 1 CDX study
Experimental: as §1, §2, §3

T1 sequence (Q9NYV4 whole entry): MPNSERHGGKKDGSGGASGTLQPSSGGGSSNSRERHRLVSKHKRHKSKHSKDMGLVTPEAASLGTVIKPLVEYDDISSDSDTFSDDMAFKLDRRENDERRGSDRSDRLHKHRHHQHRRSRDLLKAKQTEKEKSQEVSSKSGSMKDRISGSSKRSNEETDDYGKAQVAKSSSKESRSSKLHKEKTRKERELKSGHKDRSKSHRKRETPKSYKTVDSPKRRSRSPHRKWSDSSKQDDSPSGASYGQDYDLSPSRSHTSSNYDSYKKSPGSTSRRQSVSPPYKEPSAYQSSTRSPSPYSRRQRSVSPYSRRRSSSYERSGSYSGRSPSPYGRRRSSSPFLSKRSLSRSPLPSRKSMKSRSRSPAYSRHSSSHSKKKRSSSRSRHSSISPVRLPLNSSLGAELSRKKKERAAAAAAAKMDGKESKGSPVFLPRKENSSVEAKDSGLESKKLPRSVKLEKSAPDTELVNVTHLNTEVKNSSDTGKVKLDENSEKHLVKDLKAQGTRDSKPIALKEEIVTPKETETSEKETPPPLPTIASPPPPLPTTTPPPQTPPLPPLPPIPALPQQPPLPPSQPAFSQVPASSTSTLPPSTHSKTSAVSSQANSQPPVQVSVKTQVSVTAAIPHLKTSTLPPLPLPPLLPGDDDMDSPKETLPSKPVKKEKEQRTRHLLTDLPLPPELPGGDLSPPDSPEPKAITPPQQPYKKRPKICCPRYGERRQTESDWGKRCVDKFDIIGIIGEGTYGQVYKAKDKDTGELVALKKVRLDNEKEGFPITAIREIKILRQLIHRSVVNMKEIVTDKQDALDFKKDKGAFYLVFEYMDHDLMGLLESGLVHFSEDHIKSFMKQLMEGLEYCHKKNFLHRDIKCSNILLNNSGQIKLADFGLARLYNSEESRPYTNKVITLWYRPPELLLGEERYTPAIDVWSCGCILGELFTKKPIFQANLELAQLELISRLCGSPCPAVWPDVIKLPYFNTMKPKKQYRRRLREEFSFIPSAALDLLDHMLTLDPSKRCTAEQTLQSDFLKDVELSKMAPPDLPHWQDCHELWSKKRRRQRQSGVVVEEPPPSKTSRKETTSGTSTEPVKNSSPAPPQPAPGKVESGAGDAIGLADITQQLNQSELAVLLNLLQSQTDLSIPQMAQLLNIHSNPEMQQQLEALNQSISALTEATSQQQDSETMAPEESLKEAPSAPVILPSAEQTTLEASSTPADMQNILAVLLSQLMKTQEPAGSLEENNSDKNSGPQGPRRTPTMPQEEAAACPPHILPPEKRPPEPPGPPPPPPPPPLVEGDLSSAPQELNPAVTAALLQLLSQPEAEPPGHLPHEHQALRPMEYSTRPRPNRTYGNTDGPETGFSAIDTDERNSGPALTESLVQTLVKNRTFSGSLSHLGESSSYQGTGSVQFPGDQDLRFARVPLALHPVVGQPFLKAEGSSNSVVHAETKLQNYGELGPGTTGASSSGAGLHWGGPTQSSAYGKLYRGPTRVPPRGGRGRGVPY
T1 sequence (O75909 whole entry partner): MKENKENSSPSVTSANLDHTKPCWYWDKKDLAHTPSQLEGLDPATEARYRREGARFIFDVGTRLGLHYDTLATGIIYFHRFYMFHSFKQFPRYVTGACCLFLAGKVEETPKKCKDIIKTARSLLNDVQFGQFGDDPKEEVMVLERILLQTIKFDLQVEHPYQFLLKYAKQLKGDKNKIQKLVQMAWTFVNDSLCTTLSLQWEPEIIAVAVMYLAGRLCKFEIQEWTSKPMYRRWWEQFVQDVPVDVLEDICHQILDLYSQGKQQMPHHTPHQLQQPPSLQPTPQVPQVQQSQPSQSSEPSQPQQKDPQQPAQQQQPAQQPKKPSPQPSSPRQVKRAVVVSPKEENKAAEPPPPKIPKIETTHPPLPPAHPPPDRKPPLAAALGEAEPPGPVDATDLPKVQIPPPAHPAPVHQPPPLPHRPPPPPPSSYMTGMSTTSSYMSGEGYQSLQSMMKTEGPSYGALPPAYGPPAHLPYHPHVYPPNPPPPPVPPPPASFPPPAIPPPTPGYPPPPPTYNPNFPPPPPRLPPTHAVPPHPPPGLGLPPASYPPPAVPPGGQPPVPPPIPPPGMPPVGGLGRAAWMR

CDK12 kinase activity (CDK12+Cyclin K): does not affect CDK12 kinase activity
Compound: Cc1ccc(NS(=O)(=O)c2cccc(C#N)c2)c2[nH]cc(C#N)c12 [Compound E7820]
CDK 1/2/3/5 protein expression (IHC) (CDK 1/2/3/5): no changes | tumor volume (OVCAR3 CDX model): decreased | pHH3 protein expression (IHC) (pHH3): upregulate
